Test results from US20080161320A1, “FUSED BICYCLIC PYRIMIDINES AS PTK INHIBITORS CONTAINING A ZINC BINDING MOIETY” (priority 2006, published 2008).
pIC50: −log10 of the molar value.

Assays:
human HER2/ErbB2 = human HER2/ErbB2 (Homo sapiens, UniProt P04626); test: HTScan Receptor Kinase Assay, HER2/ErbB2;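 further: europium time-resolved fluorescence detection of anti-phosphotyrosine antibody binding to biotinylated FLT3 (Tyr589) peptide phosphorylated by the kinase, 30 min reaction at room temperature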
human VEGFR2 = human VEGFR2 (Homo sapiens, UniProt P35968); test: HTScan Receptor Kinase Assay, VEGFR2;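 further: recombinant GST-His-tagged human VEGFR2 kinase domain phosphorylating biotinylated gastrin precursor peptide, 30 min at room temperature, phosphotyrosine detected by Europium-labelled antibody time-resolved fluorescence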
HDAC = HDAC fluorimetric assay kit (AK-500, Biomol), HeLa nuclear extract; assay type: biochemical
Method: HDAC inhibitors were screened using an HDAC fluorimetric assay kit (AK-500, Biomol, Plymouth Meeting, Pa.). […] Each assay was setup as follows: Defrosted all kit components and kept on ice until use. […] Prepared dilutions of Trichostatin A (TSA, positive control) and tested compounds in assay buffer (5× of final concentration). Diluted Fluor de Lys™ Substrate in assay buffer to 100 uM (50 fold=2× final). Diluted Fluor de Lys™ developer concentrate 20-fold (e.g. 50 μl plus 950 μl Assay Buffer) in cold assay buffer. Second, diluted the 0.2 mM Trichostatin A 100-fold in the 1× Developer (e.g. 10 μl in 1 ml; final Trichostatin A concentration in the 1× Developer=2 μM; final concentration after addition to HDAC/Substrate reaction=1 μM). Added Assay buffer, diluted trichostatin A or test inhibitor to appropriate wells of the microtiter plate. Added diluted HeLa extract or other HDAC sample to all wells except for negative controls.

human EGFR = target: T1, human EGFR (Homo sapiens, UniProt P00533); test: HTScan Receptor Kinase Assay, EGFR; assay type: biochemical
T1 construct: human EGFR (His672-Ala1210); GST (N); purchased Cell Signaling Technologies; host or cells: baculovirus expression system
T1 sequence (P00533 672-1210): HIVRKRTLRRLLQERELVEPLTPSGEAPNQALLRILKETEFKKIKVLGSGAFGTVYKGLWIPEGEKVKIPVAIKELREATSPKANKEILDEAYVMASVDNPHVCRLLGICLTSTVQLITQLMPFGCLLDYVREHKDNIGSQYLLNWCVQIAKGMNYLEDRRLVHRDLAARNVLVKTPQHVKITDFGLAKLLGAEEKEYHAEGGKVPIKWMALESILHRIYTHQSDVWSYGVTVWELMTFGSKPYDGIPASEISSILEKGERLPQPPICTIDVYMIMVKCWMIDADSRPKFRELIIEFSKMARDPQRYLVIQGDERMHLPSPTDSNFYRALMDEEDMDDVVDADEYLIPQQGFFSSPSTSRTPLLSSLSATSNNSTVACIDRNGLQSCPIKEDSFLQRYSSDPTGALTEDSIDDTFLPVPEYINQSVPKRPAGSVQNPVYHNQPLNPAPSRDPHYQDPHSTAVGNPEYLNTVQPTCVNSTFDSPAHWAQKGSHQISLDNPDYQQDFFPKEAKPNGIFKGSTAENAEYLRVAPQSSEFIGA

Sequence of human VEGFR2 (P35968 807-1356 limits assumed): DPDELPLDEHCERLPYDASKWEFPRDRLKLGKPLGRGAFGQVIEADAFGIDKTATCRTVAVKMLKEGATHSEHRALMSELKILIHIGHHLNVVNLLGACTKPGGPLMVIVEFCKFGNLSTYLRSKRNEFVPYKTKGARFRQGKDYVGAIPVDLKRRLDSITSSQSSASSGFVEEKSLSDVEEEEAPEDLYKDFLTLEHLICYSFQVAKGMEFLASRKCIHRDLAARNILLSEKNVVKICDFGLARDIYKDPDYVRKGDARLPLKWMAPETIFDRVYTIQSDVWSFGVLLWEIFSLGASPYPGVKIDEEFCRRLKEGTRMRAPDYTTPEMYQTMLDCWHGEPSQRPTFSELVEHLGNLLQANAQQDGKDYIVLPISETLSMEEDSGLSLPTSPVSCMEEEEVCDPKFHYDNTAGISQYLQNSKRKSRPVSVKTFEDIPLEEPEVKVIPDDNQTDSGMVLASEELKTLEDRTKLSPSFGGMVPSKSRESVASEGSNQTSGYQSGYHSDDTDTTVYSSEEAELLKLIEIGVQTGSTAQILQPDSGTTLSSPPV
Sequence of human HER2/ErbB2 (P04626 676-1255): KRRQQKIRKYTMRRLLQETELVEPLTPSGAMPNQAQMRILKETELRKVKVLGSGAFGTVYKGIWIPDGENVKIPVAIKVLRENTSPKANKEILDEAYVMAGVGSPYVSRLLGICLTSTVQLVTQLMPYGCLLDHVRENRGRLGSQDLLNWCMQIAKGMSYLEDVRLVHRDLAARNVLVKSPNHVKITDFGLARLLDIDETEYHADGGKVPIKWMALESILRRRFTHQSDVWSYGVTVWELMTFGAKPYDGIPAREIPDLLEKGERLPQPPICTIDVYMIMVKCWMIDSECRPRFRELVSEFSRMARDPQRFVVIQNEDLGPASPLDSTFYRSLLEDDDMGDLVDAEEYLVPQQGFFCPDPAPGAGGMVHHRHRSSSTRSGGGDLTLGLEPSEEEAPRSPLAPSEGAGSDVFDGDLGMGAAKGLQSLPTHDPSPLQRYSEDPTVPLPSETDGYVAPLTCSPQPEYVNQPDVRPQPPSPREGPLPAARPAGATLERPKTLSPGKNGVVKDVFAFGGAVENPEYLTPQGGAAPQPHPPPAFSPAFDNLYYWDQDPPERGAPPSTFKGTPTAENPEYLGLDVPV

pIC50 (human HER2/ErbB2)	pIC50 (human VEGFR2)	pIC50 (HDAC)	pIC50 (human EGFR)	melting point [°C]	Compound
> 7.00	5.00 to 6.00	> 7.00	> 7.00	116.8 to 126.8	C[C@@H](Nc1ncnc2[nH]c(-c3ccc(OCC(=O)NO)cc3)cc12)c1ccccc1 [Compound 17, (R)—N-hydroxy-2-(4-(4-(1-phenylethylamino)-7H-pyrrolo[2,3-d]pyrimidin-6-yl)phenoxy)acetamide]
6.00 to 7.00	6.00 to 7.00	6.00 to 7.00	> 7.00	–	C[C@@H](Nc1ncnc2[nH]c(-c3ccc(NC(=O)CCCC(=O)NO)cc3)cc12)c1ccccc1 [Compound 25, (R)—N^1-Hydroxy-N^5-(4-(4-(1-phenylethylamino)-7H-pyrrolo[2,3-d]pyrimidin-6-yl)phenyl)glutaramide]
6.00 to 7.00	6.00 to 7.00	> 7.00	> 7.00	–	C[C@@H](Nc1ncnc2[nH]c(-c3ccc(NC(=O)CCCCC(=O)NO)cc3)cc12)c1ccccc1 [Compound 26, (R) —N^1-Hydroxy-N^6-(4-(4-(1-phenylethylamino)-7H-pyrrolo[2,3-d]pyrimidin-6-yl)phenyl)adipamide]
6.00 to 7.00	6.00 to 7.00	> 7.00	> 7.00	–	C[C@@H](Nc1ncnc2[nH]c(-c3ccc(NC(=O)CCCCCCC(=O)NO)cc3)cc12)c1ccccc1 [Compound 27, (R)—N^1-Hydroxy-N^8-(4-(4-(1-phenylethylamino)-7H-pyrrolo[2,3-d]pyrimidin-6-yl)phenyl)octanediamide]
6.00 to 7.00	6.00 to 7.00	< 5.00	6.00 to 7.00	–	C[C@@H](Nc1ncnc2[nH]c(-c3ccc(C(=O)NCCNCC(=O)NO)cc3)cc12)c1ccccc1 [Compound 28, (R)—N-(2-(2-(Hydroxyamino)-2-oxoethylamino)ethyl)-4-(4-(1-phenylethylamino)-7H-pyrrolo[2,3-d]pyrimidin-6-yl)benzamide]
6.00 to 7.00	6.00 to 7.00	> 7.00	> 7.00	–	C[C@@H](Nc1ncnc2[nH]c(-c3ccc(C(=O)NCCNCCC(=O)NO)cc3)cc12)c1ccccc1 [Compound 29, (R)—N-(2-(3-(Hydroxyamino)-3-oxopropylamino)ethyl)-4-(4-(1-phenylethylamino)-7H-pyrrolo[2,3-d]pyrimidin-6-yl)benzamide]
6.00 to 7.00	6.00 to 7.00	6.00 to 7.00	> 7.00	–	C[C@@H](Nc1ncnc2[nH]c(-c3ccc(C(=O)NCCNCCCCCC(=O)NO)cc3)cc12)c1ccccc1 [Compound 30, (R)—N-(2-(6-(Hydroxyamino)-6-oxohexylamino)ethyl)-4-(4-(1-phenylethylamino)-7H-pyrrolo[2,3-d]pyrimidin-6-yl)benzamide]
6.00 to 7.00	6.00 to 7.00	> 7.00	> 7.00	–	C[C@@H](Nc1ncnc2[nH]c(-c3ccc(C(=O)NCCNCCCCCCC(=O)NO)cc3)cc12)c1ccccc1 [Compound 31, (R)—N-(2-(7-(Hydroxyamino)-7-oxoheptylamino)ethyl)-4-(4-(1-phenylethylamino)-7H-pyrrolo[2,3-d]pyrimidin-6-yl)benzamide]
6.00 to 7.00	6.00 to 7.00	6.00 to 7.00	> 7.00	–	C[C@@H](Nc1ncnc2[nH]c(-c3ccc(CNCCCCCC(=O)NO)cc3)cc12)c1ccccc1 [Compound 32, (R)—N-hydroxy-6-(4-(4-(1-phenylethylamino)-7H-pyrrolo[2,3-d]pyrimidin-6-yl)benzylamino)hexanamide]
6.00 to 7.00	6.00 to 7.00	> 7.00	> 7.00	–	C[C@@H](Nc1ncnc2[nH]c(-c3ccc(CNCCCCCCC(=O)NO)cc3)cc12)c1ccccc1 [Compound 33, (R)—N-hydroxy-7-(4-(4-(1-phenylethylamino)-7H-pyrrolo[2,3-d]pyrimidin-6-yl)benzylamino)heptanamide]
6.00 to 7.00	6.00 to 7.00	6.00 to 7.00	6.00 to 7.00	–	O=C(CCCCCN1CCN(Cc2ccc(-c3cc4c(NCc5ccccc5)ncnc4[nH]3)cc2)CC1)NO [Compound 36]
6.00 to 7.00	5.00 to 6.00	> 7.00	6.00 to 7.00	–	C[C@@H](Nc1ncnc2[nH]c(-c3ccc(OCCCCCCC(=O)NO)cc3)cc12)c1ccc(F)cc1 [Compound 37]
5.00 to 6.00	5.00 to 6.00	> 7.00	6.00 to 7.00	–	O=C(CCCCCCOc1ccc(-c2cc3c(NCc4ccccc4)ncnc3[nH]2)cc1)NO [Compound 38, 7-(4-(4-(benzylamino)-7H-pyrrolo[2,3-d]pyrimidin-6-yl)phenoxy)-N-hydroxyheptanamide]
> 7.00	6.00 to 7.00	6.00 to 7.00	> 7.00	–	C[C@@H](Nc1ncnc2[nH]c(-c3ccc(C(=O)NO)cc3)cc12)c1ccccc1 [Compound 39, (R)—N-hydroxy-4-(4-(1-phenylethylamino)-7H-pyrrolo[2,3-d]pyrimidin-6-yl)benzamide]
6.00 to 7.00	5.00 to 6.00	6.00 to 7.00	> 7.00	–	O=C(NO)c1ccc(-c2cc3c(NCc4ccccc4)ncnc3[nH]2)cc1 [Compound 40]
6.00 to 7.00	6.00 to 7.00	6.00 to 7.00	> 7.00	–	C[C@@H](Nc1ncnc2[nH]c(-c3ccc(C(=O)NO)cc3)cc12)c1ccc(F)cc1 [Compound 41]
5.00 to 6.00	5.00 to 6.00	6.00 to 7.00	> 7.00	–	C[C@@H](Nc1ncnc2[nH]c(-c3ccc(NCc4ccc(/C=C/C(=O)NO)cc4)cc3)cc12)c1ccccc1 [Compound 42, (R,E)-N-Hydroxy-3-(4-((4-(4-(1-phenylethylamino)-7H-pyrrolo[2,3-d]pyrimidin-6-yl)phenylamino)methyl)phenyl)acrylamide]
6.00 to 7.00	5.00 to 6.00	6.00 to 7.00	> 7.00	–	C[C@@H](Nc1ncnc2[nH]c(-c3ccc(NCc4ccc(C(=O)NO)cc4)cc3)cc12)c1ccccc1 [Compound 43, (R)—N-Hydroxy-4-((4-(4-(1-phenylethylamino)-7H-pyrrolo[2,3-d]pyrimidin-6-yl)phenylamino)methyl)benzamide]
6.00 to 7.00	6.00 to 7.00	6.00 to 7.00	> 7.00	–	C[C@@H](Nc1ncnc2[nH]c(-c3ccc(CNCc4ccc(C(=O)NO)cc4)cc3)cc12)c1ccccc1 [Compound 44, (R)—N-hydroxy-4-((4-(4-(1-phenylethylamino)-7H-pyrrolo[2,3-d]pyrimidin-6-yl)benzylamino)methyl)benzamide]
> 7.00	> 7.00	6.00 to 7.00	> 7.00	–	C[C@@H](Nc1ncnc2[nH]c(-c3ccc(OCCNCCCCCCC(=O)NO)cc3)cc12)c1ccccc1 [Compound 60, (R)—N-hydroxy-7-(2-(4-(4-(1-phenylethylamino)-7H-pyrrolo[2,3-d]pyrimidin-6-yl)phenoxy)ethylamino)heptanamide]
> 7.00	6.00 to 7.00	> 7.00	> 7.00	–	C[C@@H](Nc1ncnc2[nH]c(-c3ccc(NCCCCCCC(=O)NO)cc3)cc12)c1ccccc1 [Compound 67, (R)—N-hydroxy-7-(4-(4-(1-phenylethylamino)-7H-pyrrolo[2,3-d]pyrimidin-6-yl)phenylamino)heptanamide]
